Test results as given in US10030047B2 (Hoffmann-La Roche Inc., priority 2015, dated 2018).
Values after ≈ are worked out from the molar mass of the structure shown.

Test system: A. baumannii strain ATCC19606
Test: Minimum inhibitory concentration (MIC) determination, microbroth dilution (CLSI)
Format: cell-based
Details: Acinetobacter baumannii; A. baumannii ATCC19606; CAMHB; read after 20 hours; >=80% growth inhibition; read-out: ATCC19606 MIC
In short: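 CLSI broth microdilution in cation-adjusted Mueller Hinton broth with twofold compound dilutions and ~5×10^5 CFU/ml inoculum, incubated at 35±2 °C. MIC read after 20 h as lowest concentration inhibiting ≥80% of growth, by eye and OD 600 nm.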

Row | Compound | MIC
1 | CN1C(=O)[C@H](CCCCN)NC(=O)[C@H](CCCN)NCc2ccccc2Sc2c(Cl)cc(-c3cn(C)cn3)cc2CNC(=O)[C@@H]1Cc1c[nH]c2ccccc12 [Example 154, (12S,15S,18S)-15-(4-Amino-butyl)-18-(3-amino-propyl)-4-chloro-12-(1H-indol-3-ylmethyl)-13-methyl-6-(1-methyl-1H-imidazol-4-yl)-2-thia-10,13,16,19-tetraaza-tricyclo[19.4.0.0*3,8*]pentacosa-1(25),3,5,7,21,23-hexaene-11,14,17-trione] | 2 µg/mL (≈ 2.55 µM)
2 | CN1C(=O)[C@H](CCCCN)NC(=O)[C@H](CCCN)NCc2cnccc2Sc2c(Cl)cc(C(F)(F)F)cc2CNC(=O)[C@@H]1Cc1c[nH]c2ccccc12 [Example 156, (7S,10S,13S)— 13-((1H-Indol-3-yl)methyl)-10-(4-aminobutyl)-7-(3-aminopropyl)-20-chloro-12-methyl-18-(trifluoromethyl)-6,7,9,10,12,13,15,16-octahydrobenzo[b]pyrido[3,4-p][1,5,8,11,14]thiatetraazacycloheptadecine-8,11,14(5H)-trione] | 1 µg/mL (≈ 1.29 µM)
3 | CN1C(=O)[C@H](CCCCN)NC(=O)[C@H](CCCN)NCc2cccnc2Sc2c(Cl)cncc2CNC(=O)[C@@H]1Cc1c[nH]c2ccccc12 [Example 157, (7S,10S,13S)— 13-((1H-Indol-3-yl)methyl)-10-(4-aminobutyl)-7-(3-aminopropyl)-20-chloro-12-methyl-6,7,9,10,12,13,15,16-octahydrodipyrido[2,3-b:3′,4′-p][1,5,8,11,14]thiatetraazacycloheptadecine-8,11,14(5H)-trione] | 16 µg/mL (≈ 22.7 µM)
4 | CN1C(=O)[C@H](CCCN)NC(=O)[C@H](CCC(N)=O)NCc2cccnc2Sc2c(Cl)cc(Cl)cc2CNC(=O)[C@@H]1Cc1c[nH]c2ccccc12 [Example 160, 3-[(11S,14S,17S)-14-(3-Amino-propyl)-23,25-dichloro-17-(1H-indol-3-ylmethyl)-16-methyl-12,15,18-trioxo-2-thia-4,10,13,16,19-pentaaza-tricyclo[19.4.0.0*3,8*]pentacosa-1(25),3(8),4,6,21,23-hexaen-11-yl]-propionamide] | 4 µg/mL (≈ 5.41 µM)
5 | CN1C(=O)[C@H](CCCCN)NC(=O)[C@H](CCCN)NCc2cccnc2Sc2c(Cl)cc(-c3ccnc(N4CCOCC4)c3)cc2CNC(=O)[C@@H]1Cc1c[nH]c2ccccc12 [Example 162, (11S,14S,17S)-14-(4-Amino-butyl)-11-(3-amino-propyl)-25-chloro-17-(1H-indol-3-ylmethyl)-16-methyl-23-(2-morpholin-4-yl-pyridin-4-yl)-2-thia-4,10,13,16,19-pentaaza-tricyclo[19.4.0.0*3,8*]pentacosa-1(25),3(8),4,6,21,23-hexaene-12,15,18-trione] | 0.5 µg/mL (≈ 0.576 µM)
6 | CN1C(=O)[C@H](CCCCN)NC(=O)[C@H](CCC(N)=O)NCc2cccnc2Sc2c(Cl)cc(-c3ccccn3)cc2CNC(=O)[C@@H]1Cc1c[nH]c2ccccc12 [Example 163, 3-[(11S,14S,17S)-14-(4-Amino-butyl)-25-chloro-17-(1H-indol-3-ylmethyl)-16-methyl-12,15,18-trioxo-23-pyridin-2-yl-2-thia-4,10,13,16,19-pentaaza-tricyclo[19.4.0.0*3,8*]pentacosa-1(25),3(8),4,6,21,23-hexaen-1-yl]-propionamide] | 4 µg/mL (≈ 5.02 µM)
7 | Cc1cc(-c2cc3c(cn2)Sc2ncccc2CN[C@@H](CCCN)C(=O)N[C@@H](CCCCN)C(=O)N(C)[C@@H](Cc2c[nH]c4ccccc24)C(=O)NC3)ccn1 [Example 167, (7S,10S,13S)-13-((1H-Indol-3-yl)methyl)-10-(4-aminobutyl)-7-(3-aminopropyl)-12-methyl-18-(2-methylpyridin-4-yl)-6,7,9,12,13,15,16-octahydrodipyrido[2,3-b:4′,3′-p][1,5,8,11,14]thiatetraazacycloheptadecine-8,11,14(5H)-trione] | 32 µg/mL (≈ 41.9 µM)
8 | Cc1noc(C)c1-c1cc(Cl)c2c(c1)CNC(=O)[C@H](Cc1c[nH]c3ccccc13)N(C)C(=O)[C@H](CCCCN)NC(=O)[C@H](CCC(N)=O)NCc1cccnc1S2 [Example 169, 3-[(11S,14S,17S)-14-(4-Amino-butyl)-25-chloro-23-(3,5-dimethyl-isoxazol-4-yl)-17-(1H-indol-3-ylmethyl)-16-methyl-12,15,18-trioxo-2-thia-4,10,13,16,19-pentaaza-tricyclo[19.4.0.0*3,8*]pentacosa-1(25),3(8),4,6,21,23-hexaen-11-yl]-propionamide] | 4 µg/mL (≈ 4.91 µM)

Now from value to molecule:

Row | MIC | Compound
9 | 0.25 µg/mL (≈ 0.306 µM) | CN1C(=O)[C@H](CCCCN)NC(=O)[C@H](CCCN)NCc2cccnc2Sc2c(Cl)cc(-c3ccnc(Cl)c3)cc2CNC(=O)[C@@H]1Cc1c[nH]c2ccccc12 [Example 164, (11S,14S,17S)-14-(4-Amino-butyl)-11-(3-amino-propyl)-25-chloro-23-(2-chloro-pyridin-4-yl)-17-(1H-indol-3-ylmethyl)-16-methyl-2-thia-4,10,13,16,19-pentaaza-tricyclo[19.4.0.0*3,8*]pentacosa-1(21),3,5,7,22,24-hexaene-12,15,18-trione]
10 | 4 µg/mL (≈ 5.01 µM) | CN1C(=O)[C@H](CCCCN)NC(=O)[C@H](CCCN)NCc2cccnc2Sc2c(Cl)cc(-c3ccc(O)nc3)cc2CNC(=O)[C@@H]1Cc1c[nH]c2ccccc12 [Example 165, (11S,14S,17S)-14-(4-Amino-butyl)-11-(3-amino-propyl)-25-chloro-23-(6-hydroxy-pyridin-3-yl)-17-(1H-indol-3-ylmethyl)-16-methyl-2-thia-4,10,13,16,19-pentaaza-tricyclo[19.4.0.0*3,8*]pentacosa-1(25),3(8),4,6,21,23-hexaene-12,15,18-trione]
11 | 0.5 µg/mL (≈ 0.606 µM) | CN(C)c1ccc(-c2cc(Cl)c3c(c2)CNC(=O)[C@H](Cc2c[nH]c4ccccc24)N(C)C(=O)[C@H](CCCCN)NC(=O)[C@H](CCCN)NCc2cccnc2S3)cn1 [Example 166, (11S,14S,17S)-14-(4-Amino-butyl)-11-(3-amino-propyl)-25-chloro-23-(6-dimethylamino-pyridin-3-yl)-17-(1H-indol-3-ylmethyl)-16-methyl-2-thia-4,10,13,16,19-pentaaza-tricyclo[19.4.0.0*3,8*]pentacosa-1(25),3(8),4,6,21,23-hexaene-12,15,18-trione]
12 | 0.5 µg/mL (≈ 0.617 µM) | Cc1cc(-c2cc(Cl)c3c(c2)CNC(=O)[C@H](Cc2c(C)[nH]c4ccccc24)N(C)C(=O)[C@H](CCCCN)NC(=O)[C@H](CCCN)NCc2cccnc2S3)ccn1 [Example 170, (11S,14S,17S)-14-(4-Amino-butyl)-11-(3-amino-propyl)-25-chloro-16-methyl-17-(2-methyl-1H-indol-3-ylmethyl)-23-(2-methyl-pyridin-4-yl)-2-thia-4,10,13,16,19-pentaaza-tricyclo[19.4.0.0*3,8*]pentacosa-1(25),3(8),4,6,21,23-hexaene-12,15,18-trione]
13 | 0.5 µg/mL (≈ 0.605 µM) | COc1cc(-c2cc(Cl)c3c(c2)CNC(=O)[C@H](Cc2c(C)[nH]c4ccccc24)N(C)C(=O)[C@H](CCCCN)NC(=O)[C@H](CCCN)NCc2cccnc2S3)ccn1 [Example 171, (11S,14S,17S)-14-(4-Amino-butyl)-11-(3-amino-propyl)-25-chloro-23-(2-methoxy-pyridin-4-yl)-16-methyl-17-(2-methyl-1H-indol-3-ylmethyl)-2-thia-4,10,13,16,19-pentaaza-tricyclo[19.4.0.0*3,8*]pentacosa-1(25),3(8),4,6,21,23-hexaene-12,15,18-trione]
